This note sets out measurements from PubChem BioAssay AID330 (DTP/NCI, 2004).

The assay concerns P388 leukemia ip, CD2F1 mice, survival T/C. In words: NCI In Vivo Anticancer Drug Screen. Data for tumor model P388 Leukemia (intraperitoneal) in CD2F1 (CDF1) mice. The settings on record: endpoint: median survival time, higher = longer survival. In outline:
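Mice carrying the transplanted tumor received test compound or vehicle. Survival was recorded in each group, and the value is the treated-group measurement divided by that of the vehicle-treated control group.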

[1] abbreviates: dose: 50.0 mg/kg/injection, schedule: Q01DX009 (ip), vehicle: saline with Tween-80.
Where [2] appears, read: dose: 100.0 mg/kg/injection, schedule: Q01DX009 (ip), vehicle: saline with Tween-80.
Setting [3] is: dose: 200.0 mg/kg/injection, schedule: Q01DX009 (ip), vehicle: saline with Tween-80.
Where [4] appears, read: dose: 50.0 mg/kg/injection, schedule: Q01DX005 (ip), vehicle: saline.
[5] abbreviates: dose: 100.0 mg/kg/injection, schedule: Q01DX005 (ip), vehicle: saline.
[6] abbreviates: dose: 50.0 mg/kg/injection, schedule: Q01DX009 (ip), vehicle: Klucel (hydroxypropylcellulose) (HPC).
The mark [7] stands for this setting: dose: 100.0 mg/kg/injection, schedule: Q01DX009 (ip), vehicle: Klucel (hydroxypropylcellulose) (HPC).
Setting [8] is: dose: 200.0 mg/kg/injection, schedule: Q01DX009 (ip), vehicle: Klucel (hydroxypropylcellulose) (HPC).
[9] abbreviates: dose: 60.0 mg/kg/injection, schedule: Q01DX005 (ip), vehicle: saline with Tween-80.
[10] abbreviates: dose: 120.0 mg/kg/injection, schedule: Q01DX005 (ip), vehicle: saline with Tween-80.
The mark [11] stands for this setting: dose: 240.0 mg/kg/injection, schedule: Q01DX005 (ip), vehicle: saline with Tween-80.
Setting [12] is: dose: 12.5 mg/kg/injection, schedule: Q01DX009 (ip), vehicle: saline with Tween-80.
Setting [13] is: dose: 25.0 mg/kg/injection, schedule: Q01DX009 (ip), vehicle: saline with Tween-80.
Where [14] appears, read: dose: 50.0 mg/kg/injection, schedule: Q01DX005 (ip), vehicle: Klucel (hydroxypropylcellulose) (HPC).
Where [15] appears, read: dose: 100.0 mg/kg/injection, schedule: Q01DX005 (ip), vehicle: Klucel (hydroxypropylcellulose) (HPC).
The mark [16] stands for this setting: dose: 200.0 mg/kg/injection, schedule: Q01DX005 (ip), vehicle: Klucel (hydroxypropylcellulose) (HPC).
The mark [17] stands for this setting: dose: 100.0 mg/kg/injection, schedule: Q01DX005 (ip), vehicle: saline with Tween-80.
The mark [18] stands for this setting: dose: 50.0 mg/kg/injection, schedule: Q01DX005 (ip), vehicle: saline with Tween-80.
[19] abbreviates: dose: 200.0 mg/kg/injection, schedule: Q01DX005 (ip), vehicle: saline with Tween-80.

“And” between values parts separate entries of the source, which are not always exact repeats. Equal entries are not always repeated. Toxic doses and inconclusive results are not listed. Peptide text beside a SMILES is read from it. * marks the point of attachment. Boc = CC(C)(C)OC(=O)*; NHNH2 = NN*

For the compound `COc1cccc(C=O)c1OC(=O)Oc1ccccc1`, the T/C is, setting by setting: (dose: 3.13 mg/kg/injection, schedule: Q01DX009 (ip), vehicle: distilled water + Tween-80) 111 % of control and 95 % of control; (dose: 6.25 mg/kg/injection, schedule: Q01DX009 (ip), vehicle: distilled water + Tween-80) 111 % of control; (dose: 12.5 mg/kg/injection, schedule: Q01DX009 (ip), vehicle: distilled water + Tween-80) 100 % of control and 104 % of control; (dose: 25.0 mg/kg/injection, schedule: Q01DX009 (ip), vehicle: distilled water + Tween-80) 109 % of control and 113 % of control and 114 % of control; (dose: 50.0 mg/kg/injection, schedule: Q01DX009 (ip), vehicle: distilled water + Tween-80) 100 % of control and 103 % of control.
For the compound `CN(N=O)C1=NC(C)(CCl)P(=O)(NNc2ncccn2)O1` (configuration not stated), the T/C runs as follows: (dose: 60.0 mg/kg/injection, schedule: Q01DX005 (ip), vehicle: saline) 108 % of control; (dose: 120.0 mg/kg/injection, schedule: Q01DX005 (ip), vehicle: saline) 110 % of control.
In the case of `C[C@]12C=CC(=O)C=C1CC[C@H]1[C@@H]3C[C@@H](O)[C@](O)(C(=O)CO)[C@@]3(C)C[C@H](O)[C@@]12F`, the T/C (dose: 100.0 mg/kg/injection, schedule: Q04DX003 (ip), vehicle: Klucel (hydroxypropylcellulose) (HPC)) is 100 % of control and the T/C (dose: 200.0 mg/kg/injection, schedule: Q04DX003 (ip), vehicle: Klucel (hydroxypropylcellulose) (HPC)) was 90 % of control.
Turning to `O=Cc1ccc(N=Nc2c(S(=O)(=O)O)cc3cc(S(=O)(=O)O)cc(O)c3c2O)cc1`, the T/C was 90 % of control under setting [1], 90 % of control under setting [2] and 100 % of control under setting [3].
Take `CCCCCN(CCNc1cc(OC)cc2cccnc12)C(C)CC` (configuration not stated): the T/C is, setting by setting: (dose: 12.5 mg/kg/injection, schedule: Q01DX005 (ip), vehicle: saline) 112 % of control; (dose: 25.0 mg/kg/injection, schedule: Q01DX005 (ip), vehicle: saline) 103 % of control; under setting [4], 101 % of control and 97 % of control; under setting [5], 100 % of control.
As to `C[N+](C)(C)C.O=C([CH-]C(=O)C(F)(F)F)c1ccccc1.O=C([CH-]C(=O)C(F)(F)F)c1ccccc1.O=C([CH-]C(=O)C(F)(F)F)c1ccccc1.O=C([CH-]C(=O)C(F)(F)F)c1ccccc1.[Eu+3]`, the T/C is, setting by setting: (dose: 25.0 mg/kg/injection, schedule: Q01DX009 (ip), vehicle: Klucel (hydroxypropylcellulose) (HPC)) 99 % of control; under setting [6], 106 % of control and 113 % of control; under setting [1], 103 % of control; under setting [7], 112 % of control and 117 % of control; under setting [2], 99 % of control; under setting [8], 113 % of control.
As for `CCn1c2nc(=O)[nH]c(=O)c-2[n+]([O-])c2ccccc21`, the T/C reads like this: (dose: 12.5 mg/kg/injection, schedule: Q01DX001 (ip), vehicle: saline with Tween-80) 96 % of control; (dose: 25.0 mg/kg/injection, schedule: Q01DX001 (ip), vehicle: saline with Tween-80) 96 % of control; (dose: 50.0 mg/kg/injection, schedule: Q01DX001 (ip), vehicle: saline with Tween-80) 96 % of control.
`C=C1C(=O)OC2/C=C(\COC(C)=O)CC/C=C(/COC(=O)C(C)CC)CC(O)C12` (configuration not stated) (tested in a mixture with another compound): the T/C was 119 % of control (dose: 2.0 mg/kg/injection, schedule: Q01DX009 (ip), vehicle: Klucel (hydroxypropylcellulose) (HPC)); 114 % of control (dose: 4.0 mg/kg/injection, schedule: Q01DX009 (ip), vehicle: Klucel (hydroxypropylcellulose) (HPC)); 113 % of control (dose: 8.0 mg/kg/injection, schedule: Q01DX009 (ip), vehicle: Klucel (hydroxypropylcellulose) (HPC)); 111 % of control (dose: 16.0 mg/kg/injection, schedule: Q01DX009 (ip), vehicle: Klucel (hydroxypropylcellulose) (HPC)); 120 % of control (dose: 32.0 mg/kg/injection, schedule: Q01DX009 (ip), vehicle: Klucel (hydroxypropylcellulose) (HPC)).
As for `O=C(O)c1c(-c2ccccc2)cnc2ccccc12`, the T/C is, setting by setting: under setting [1], 95 % of control; under setting [2], 89 % of control; under setting [3], 97 % of control.
`CCN(CC)CCCC(C)Nc1nccc2cccc(Cl)c12` (configuration not stated): the T/C is 104 % of control under setting [4] and 104 % of control under setting [5].
On to `Cc1ccc(C=Nc2ccc(Cl)c(Cl)c2)cc1`, for which the T/C under setting [9] is 100 % of control, the T/C under setting [10] was 108 % of control and the T/C under setting [11] was 89 % of control.
In the case of `CC(C)(C)NSc1nc2ccccc2s1`, the T/C was 109 % of control under setting [12]; 100 % of control (dose: 12.5 mg/kg/injection, schedule: Q04DX003 (ip), vehicle: saline with Tween-80); 100 % of control under setting [13]; 95 % of control (dose: 25.0 mg/kg/injection, schedule: Q04DX003 (ip), vehicle: saline with Tween-80); 100 % of control under setting [1]; 100 % of control and 87 % of control (dose: 50.0 mg/kg/injection, schedule: Q04DX003 (ip), vehicle: saline with Tween-80).
On to `O=C(NNC(=O)C12CC3CC(CC(C3)C1)C2)C12CC3CC(CC(C3)C1)C2`, for which the T/C is, setting by setting: (dose: 25.0 mg/kg/injection, schedule: Q01DX005 (ip), vehicle: Klucel (hydroxypropylcellulose) (HPC)) 105 % of control; under setting [14], 102 % of control; under setting [15], 105 % of control; under setting [16], 105 % of control.
In the case of `CC1NC(=O)C(C)NC1=O` (configuration not stated), the T/C under setting [6] is 93 % of control, the T/C under setting [7] is 96 % of control and the T/C under setting [8] is 94 % of control.
For the compound `N#CC1(Nc2ccccc2)CCCCC1`, the T/C reads like this: (dose: 6.25 mg/kg/injection, schedule: Q01DX009 (ip), vehicle: saline with Tween-80) 90 % of control; under setting [12], 95 % of control; under setting [13], 90 % of control.
In the case of `CC1=CC(Cc2ccccc2)N(C)C(C(N)=O)C1` (configuration not stated), the T/C reads like this: under setting [14], 102 % of control; under setting [15], 101 % of control.
Consider `CCCCCCCCCCCC[N+](C)(CCS(=O)(=O)[O-])Cc1ccccc1` (configuration not stated), for which, under setting [17], the T/C is 108 % of control.
As for `S=c1n(-c2ccc(Cl)cc2)c2nc3ccccc3nc(/c2=N\Nc2ccccc2)n1-c1ccccn1`, the T/C was 91 % of control under setting [18] and 100 % of control under setting [17].
Take `COc1ccc(S(=O)(=O)/C(=C/c2ccccc2[N+](=O)[O-])C(=O)c2ccccc2)cc1`: the T/C was 111 % of control under setting [18], 103 % of control under setting [17] and 104 % of control under setting [19].
Take `Nc1[nH]c(=S)[nH]c(=O)c1N=Nc1ccccc1`: the T/C reads like this: (dose: 100.0 mg/kg/injection, schedule: Q01DX001 (ip), vehicle: saline with Tween-80) 98 % of control; (dose: 200.0 mg/kg/injection, schedule: Q01DX001 (ip), vehicle: saline with Tween-80) 102 % of control; (dose: 400.0 mg/kg/injection, schedule: Q01DX001 (ip), vehicle: saline with Tween-80) 117 % of control.
`COc1ccc(OC)c2cc3c(cc12)C(=O)c1ccccc1C3=O`: the T/C was 87 % of control under setting [14], 88 % of control under setting [15] and 91 % of control under setting [16].
On to `N#Cc1nnn2c1nc(N)c1c(Cl)cccc12`, for which the T/C is, setting by setting: under setting [9], 98 % of control; under setting [10], 100 % of control; under setting [11], 100 % of control.
As to `O=C1C(Cl)=C(NC2C(O)OC(CO)C(O)C2O)C(=O)C(Cl)=C1NC1C(O)OC(CO)C(O)C1O` (configuration not stated), the T/C is 96 % of control under setting [18], 90 % of control under setting [17] and 97 % of control under setting [19].
For the compound `O=[N+]([O-])c1ccc(N=NN2CCOC2)cc1`, the T/C under setting [18] was 99 % of control, the T/C under setting [17] was 103 % of control and the T/C under setting [19] was 105 % of control.
On to `CNC(=O)OCc1c(COC(=O)NC)c(C)n(-c2ccc(Cl)c(Cl)c2)c1C`, for which the T/C runs as follows: (dose: 12.5 mg/kg/injection, schedule: Q01DX009 (ip), vehicle: saline) 154 % of control and 160 % of control; (dose: 25.0 mg/kg/injection, schedule: Q01DX009 (ip), vehicle: saline) 165 % of control.
`CC(C)(C)OC(=O)NC(Cc1c[nH]c2ccccc12)C(=O)NC(Cc1ccccc1)C(=O)NN` (stereo not drawn) (Boc-Trp-Phe-NHNH2; configuration not given here): the T/C under setting [6] is 92 % of control, the T/C under setting [7] was 88 % of control and the T/C under setting [8] was 91 % of control.
